{"source": "patent US7776292B2", "about": "(priority 2004, dated 2010)", "format_in_all_cases": "cell-based", "key": {"[1]": {"test_system": "conventional biological indicator spores"}, "[2]": {"test_system": "conventional biological indicator spores", "remark": "listed apart in the source"}, "[3]": {"test_system": "conventional biological indicator spores", "remark": "listed apart in the source"}, "weaponized spores [4]": {"test_system": "weaponized spores"}, "weaponized spores [5]": {"test_system": "weaponized spores", "remark": "listed apart in the source"}, "weaponized spores [6]": {"test_system": "weaponized spores", "remark": "listed apart in the source"}, "weaponized spores [7]": {"test_system": "weaponized spores", "remark": "listed apart in the source"}, "weaponized spores [8]": {"test_system": "weaponized spores", "remark": "listed apart in the source"}, "[9]": {"test_system": "TP 10 (conventional bioindicator spores)"}, "weaponized spores [10]": {"test_system": "weaponized spores", "remark": "listed apart in the source"}}, "note": "Where “and” joins values, the source holds several entries; their conditions need not be identical. Equal values may be shown once.", "data": [{"compound": "[O][Cl+][O-]", "note": "[chlorine dioxide]", "values": [{"measurement": "filters with viable spores/filters, Humidification time 1 hour", "setting": "[1]", "result": "0/2"}, {"measurement": "filters with viable spores/filters, Humidification time 2 hours", "setting": "[1]", "result": "0/2"}, {"measurement": "filters with viable spores/filters, Humidification time 3 hours", "setting": "[1]", "result": "0/2"}, {"measurement": "viability in culture, Humidification Time 1 hour", "setting": "[2]", "result": "Negative"}, {"measurement": "viability in culture, Humidification Time 2 hours", "setting": "[2]", "result": "Negative"}, {"measurement": "viability in culture, Humidification Time 3 hours", "setting": "[2]", "result": "Negative"}, {"measurement": "filters with viable spores/filters, ClO2 Concentration 500 ppm", "setting": "[3]", "result": "0/2"}, {"measurement": "filters with viable spores/filters, ClO2 Concentration 1000 ppm", "setting": "[3]", "result": "0/2"}, {"measurement": "filters with viable spores/filters, ClO2 Concentration 2500 ppm", "setting": "[3]", "result": "0/2"}, {"measurement": "filters with viable spores/filters, Humidification time 1 hour", "setting": "weaponized spores [4]", "result": "0/2"}, {"measurement": "filters with viable spores/filters, Humidification time 2 hours", "setting": "weaponized spores [4]", "result": "0/2"}, {"measurement": "filters with viable spores/filters, Humidification time 3 hours", "setting": "weaponized spores [4]", "result": "0/2"}, {"measurement": "filters showing viable spores following decontamination (out of 16)", "setting": "weaponized spores [5]", "result": "none"}, {"measurement": "viable spores after Cycle 1", "setting": "weaponized spores [6]", "result": "5.7 × 10^4"}, {"measurement": "viable spores after Cycle 2", "setting": "weaponized spores [6]", "result": 0}, {"measurement": "viable spores after Cycle 3", "setting": "weaponized spores [6]", "result": "3.3 × 10^1"}, {"measurement": "10^−4 (Dilution on agar)", "setting": "weaponized spores [7]", "result": "TNTC"}, {"measurement": "filters with viable spores/filters, ClO2 Concentration 500 ppm", "setting": "weaponized spores [8]", "result": "3/4 and 2/2; and 2/2"}, {"measurement": "filters with viable spores/filters, ClO2 Concentration 1000 ppm", "setting": "weaponized spores [8]", "result": "0/2"}, {"measurement": "filters with viable spores/filters, ClO2 Concentration 2500 ppm", "setting": "weaponized spores [8]", "result": "0/2"}, {"measurement": "viable spore count, ClO2 Concentration 500 ppm", "setting": "weaponized spores [8]", "result": "1.43 × 10^3"}, {"measurement": "viable spores after Cycle 1", "setting": "[9]", "result": "4.3 × 10^5"}, {"measurement": "viable spores after Cycle 2", "setting": "[9]", "result": "1.3 × 10^3"}, {"measurement": "viable spores after Cycle 3", "setting": "[9]", "result": "7.2 × 10^2"}, {"measurement": "viability in culture, Humidification Time 1 hour", "setting": "weaponized spores [10]", "result": "Positive"}, {"measurement": "viability in culture, Humidification Time 2 hours", "setting": "weaponized spores [10]", "result": "Positive"}, {"measurement": "viability in culture, Humidification Time 3 hours", "setting": "weaponized spores [10]", "result": "Positive"}]}]}
